Results on 6 molecules are retold here after patent US11584737B2, “Heterocyclic compound” (TAKEDA PHARMACEUTICAL COMPANY LIMITED, priority 2018, dated 2023).

One experiment addresses CDK12/CycK complex (Homo sapiens, UniProt Q9NYV4). Description: Measurement of CDK12 inhibitory activity by binding assay (BODIPY-FL labeled AT-7519 high concentration conditions, 1320 nM). The following applies: inhibitory rate against CDK12 at 1 μM test compound, 1320 nM BODIPY-FL-labeled AT-7519, 8 nM CDK12/CycK. As for the experimental part: (4) Measurement of CDK12 Inhibitory Activity by Binding Assay (BODIPY-FL Labeled AT-7519 High Concentration Conditions)
His-tagged CDK12/CycK complex was blended with a binding assay buffer supplemented with BODIPY-FL labeled AT-7519, terbium-labeled streptavidin and biotin-labeled anti-histidine antibody. This solution was added to an assay plate containing a test compound dispensed therein, and the mixture was left standing for 120 min at room temperature. The final concentration of CDK12/CycK complex, BODIPY-FL-labeled AT-7519, terbium-labeled streptavidin and biotin-labeled anti-histidine antibody was set to 8 nM, 1320 nM, 0.2 nM, and 0.4 nM, respectively. The fluorescence intensity derived from terbium and BODIPY-FL was measured using Envision. The signal value of each well was determined using the TR-FRET ratio calculated by the following formula. TR-FRET ratio=(fluorescence value of BODIPY-FL)÷(fluorescence value of terbium)
The inhibitory rate (%) of the test compound against CDK12 was calculated by the following formula. Inhibitory rate (%)=(1−(TR-FRET ratio of test compound−blank)÷(control−blank))×100
The TR-FRET ratio of the CDK12 enzyme reaction mixture under compound non-addition conditions is indicated as control, and the TR-FRET ratio under 30 μM AT-7519 addition conditions is indicated as blank.
The inhibitory rate of the test compound against CDK12 at 1 μM is shown below.

A further experiment concerns A2780 cells. Description: In vitro proliferation suppression test (CellTiter-Glo). Type of experiment: cell-based, human. Particulars: Homo sapiens, 72 h, A2780 cell proliferation inhibitory rate at 1 μM test compound, three days. The procedure:
Experimental Example 4: In Vitro Proliferation Suppression Test
The proliferation suppressive activity of compound in A2780 cells was evaluated by the following method.
A2780 cells were seeded in a 384-well white plate at a cell density of 1,000 cells/40 μL/well or a 96-well white plate at a cell density of 1,000 cells/90 μL/well using an assay medium (RPMI1640 medium containing 10% fetal bovine serum (FUJIFILM Wako Pure Chemical Corporation)) and incubated at 37° C. in 5% CO2.
The next day, a test compound dissolved in dimethyl sulfoxide (DMSO) was diluted with an assay medium, the obtained compound solution was added by 40 μL/well or 10 μL/well to each well of the plate containing A2780 cells and the mixture was incubated (test compound addition group). In addition, a similar reaction was performed without adding the test compound (test compound non-addition group).
Three days later, 80 μL or 100 μL of CellTiter-Glo reagent (Promega) was added, and the mixture was stirred for 10 min. Thereafter, the luminescence of each well was measured by ARVO-MX multilabel counter (Perkin Elmer Inc.).
The proliferation inhibitory rate (%) of each test compound against A2780 cells was calculated by the following calculation formula. Proliferation inhibitory rate (%)=(1−luminescence of test compound addition group÷luminescence of test compound non-addition group)×100
The A2780 cell proliferation inhibitory rate (%) of 1 μM test compound is shown below.

Chain of CDK12/CycK complex (Q9NYV4 whole entry, species assumed): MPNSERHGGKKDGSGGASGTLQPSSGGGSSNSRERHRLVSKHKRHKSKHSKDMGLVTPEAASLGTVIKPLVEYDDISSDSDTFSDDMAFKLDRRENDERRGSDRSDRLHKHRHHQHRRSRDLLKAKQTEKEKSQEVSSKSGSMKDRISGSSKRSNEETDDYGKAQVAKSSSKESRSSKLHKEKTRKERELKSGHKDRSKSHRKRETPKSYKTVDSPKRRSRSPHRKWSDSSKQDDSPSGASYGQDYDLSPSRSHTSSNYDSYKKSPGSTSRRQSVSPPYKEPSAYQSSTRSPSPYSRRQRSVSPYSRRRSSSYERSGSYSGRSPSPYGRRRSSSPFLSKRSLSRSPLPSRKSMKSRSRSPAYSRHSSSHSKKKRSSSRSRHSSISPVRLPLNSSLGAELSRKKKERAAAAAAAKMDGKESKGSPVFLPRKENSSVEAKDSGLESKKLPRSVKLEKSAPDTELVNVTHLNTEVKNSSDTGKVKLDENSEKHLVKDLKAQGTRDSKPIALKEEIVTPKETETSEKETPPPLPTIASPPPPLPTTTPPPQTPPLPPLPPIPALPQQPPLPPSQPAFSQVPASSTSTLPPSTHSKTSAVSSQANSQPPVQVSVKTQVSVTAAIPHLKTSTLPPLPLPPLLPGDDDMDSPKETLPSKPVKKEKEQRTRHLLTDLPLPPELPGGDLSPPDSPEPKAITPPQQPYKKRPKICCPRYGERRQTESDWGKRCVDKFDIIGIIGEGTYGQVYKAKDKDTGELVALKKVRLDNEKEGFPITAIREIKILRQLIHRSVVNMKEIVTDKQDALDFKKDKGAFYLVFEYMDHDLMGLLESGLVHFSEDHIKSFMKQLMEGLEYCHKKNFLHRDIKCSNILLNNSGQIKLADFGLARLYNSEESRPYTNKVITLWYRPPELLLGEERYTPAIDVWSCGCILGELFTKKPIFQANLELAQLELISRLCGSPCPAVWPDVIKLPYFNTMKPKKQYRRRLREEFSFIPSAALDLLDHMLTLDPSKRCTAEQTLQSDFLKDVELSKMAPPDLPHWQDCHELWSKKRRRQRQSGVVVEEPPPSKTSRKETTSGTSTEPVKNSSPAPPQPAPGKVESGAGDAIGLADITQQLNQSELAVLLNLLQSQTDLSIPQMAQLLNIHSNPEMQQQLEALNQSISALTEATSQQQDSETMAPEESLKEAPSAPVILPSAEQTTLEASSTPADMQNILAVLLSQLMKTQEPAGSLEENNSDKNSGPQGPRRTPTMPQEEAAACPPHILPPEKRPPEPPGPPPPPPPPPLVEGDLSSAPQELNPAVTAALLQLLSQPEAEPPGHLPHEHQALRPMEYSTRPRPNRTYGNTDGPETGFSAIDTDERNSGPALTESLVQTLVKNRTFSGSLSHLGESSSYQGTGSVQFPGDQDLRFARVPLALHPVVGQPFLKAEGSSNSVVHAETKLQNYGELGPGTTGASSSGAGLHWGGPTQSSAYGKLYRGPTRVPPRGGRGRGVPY
Chain of CDK12/CycK complex (O75909 whole entry partner, species assumed): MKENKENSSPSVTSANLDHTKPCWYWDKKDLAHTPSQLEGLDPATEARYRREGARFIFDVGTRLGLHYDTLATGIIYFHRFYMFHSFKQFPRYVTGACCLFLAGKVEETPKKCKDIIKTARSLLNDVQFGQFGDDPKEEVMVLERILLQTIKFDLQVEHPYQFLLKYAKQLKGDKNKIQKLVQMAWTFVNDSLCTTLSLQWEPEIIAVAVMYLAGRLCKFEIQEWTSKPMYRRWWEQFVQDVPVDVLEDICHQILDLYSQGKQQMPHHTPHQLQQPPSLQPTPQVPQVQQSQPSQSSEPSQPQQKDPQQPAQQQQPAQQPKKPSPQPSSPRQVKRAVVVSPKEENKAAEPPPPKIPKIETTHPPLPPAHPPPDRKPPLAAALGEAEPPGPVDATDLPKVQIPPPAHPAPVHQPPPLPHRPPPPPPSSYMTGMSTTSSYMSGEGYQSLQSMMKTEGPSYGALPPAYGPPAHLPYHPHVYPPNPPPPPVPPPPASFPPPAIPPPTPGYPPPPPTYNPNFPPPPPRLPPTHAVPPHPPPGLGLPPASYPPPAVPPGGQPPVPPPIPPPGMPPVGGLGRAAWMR

With `COc1ncc(-c2cnc(N(C(=O)OCC(F)F)[C@H]3CC[C@H](Nc4ncc(C(F)(F)F)c(-c5cncc(S(C)(=O)=O)c5)n4)CC3)cn2)cn1` [Example 766, 2,2-difluoroethyl (trans-4-((4-(5-(methanesulfonyl)pyridin-3-yl)-5-(trifluoromethyl)pyrimidin-2-yl)amino)cyclohexyl) (5-(2-methoxypyrimidin-5-yl)pyrazin-2-yl)carbamate], the values for the inhibition at 1 µM at CDK12/CycK complex and in the experiment on A2780 cells were 96% and 99%, respectively.

On to `CCCC(=O)N(c1ccc(-c2cnc(OC)nc2)cn1)[C@H]1CC[C@H](Nc2ncc(C(F)(F)F)c(-c3cncc(S(C)(=O)=O)c3)n2)CC1` [Example 858, N-(trans-4-((4-(5-(methanesulfonyl)pyridin-3-yl)-5-(trifluoromethyl)pyrimidin-2-yl)amino)cyclohexyl)-N-(5-(2-methoxypyrimidin-5-yl)pyridin-2-yl)butanamide], for which the inhibition at 1 µM at CDK12/CycK complex amounted to 109%; in the experiment on A2780 cells, 99%.

For `CCOCC(=O)N(c1cnc(-c2cnn(C)c2)cn1)[C@H]1CC[C@H](Nc2ncc(C(F)(F)F)c(-c3cncc(S(C)(=O)=O)c3)n2)CC1` [Example 831, 2-ethoxy-N-(trans-4-((4-(5-(methanesulfonyl)pyridin-3-yl)-5-(trifluoromethyl)pyrimidin-2-yl)amino)cyclohexyl)-N-(5-(1-methyl-1H-pyrazol-4-yl)pyrazin-2-yl)acetamide], the inhibition at 1 µM came out at 107% at CDK12/CycK complex and 99% with A2780 cells.

Turning to `COc1ncc(-c2cnc(N(C(=O)NCC(C)(C)O)[C@H]3CC[C@H](Nc4ncc(C(F)(F)F)c(-c5ccn(C(F)F)n5)n4)CC3)cn2)cn1` [Example 804, 1-(trans-4-((4-(1-(difluoromethyl)-1H-pyrazol-3-yl)-5-(trifluoromethyl)pyrimidin-2-yl)amino)cyclohexyl)-3-(2-hydroxy-2-methylpropyl)-1-(5-(2-methoxypyrimidin-5-yl)pyrazin-2-yl)urea], the inhibition at 1 µM on CDK12/CycK complex was found to be 94%; in the experiment with A2780 cells, 96%.

Turning to `COc1ncc(-c2ccc(N(C(=O)NCC(C)(C)O)[C@H]3CC[C@H](Nc4ncc(C(F)(F)F)c(-c5ccn(C(F)F)n5)n4)CC3)nc2)cn1` [Example 849, 1-(trans-4-((4-(1-(difluoromethyl)-1H-pyrazol-3-yl)-5-(trifluoromethyl)pyrimidin-2-yl)amino)cyclohexyl)-3-(2-hydroxy-2-methylpropyl)-1-(5-(2-methoxypyrimidin-5-yl)pyridin-2-yl)urea], the inhibition at 1 µM at CDK12/CycK complex was 110%; in the experiment on A2780 cells, 97%.

`CCCC(=O)N(c1cnc(-c2cnc(OC)nc2)cn1)[C@H]1CC[C@H](Nc2ncc(C(F)(F)F)c(-c3cncc(S(C)(=O)=O)c3)n2)CC1` [Example 798, N-(trans-4-((4-(5-(methanesulfonyl)pyridin-3-yl)-5-(trifluoromethyl)pyrimidin-2-yl)amino)cyclohexyl)-N-(5-(2-methoxypyrimidin-5-yl)pyrazin-2-yl)butanamide]: the inhibition at 1 µM stood at 92% at CDK12/CycK complex and 99% with A2780 cells.
